Measurements reported in patent US20180028667A1, “AQUEOUS LIQUID AGENT” (SENJU PHARMACEUTICAL CO., LTD., priority 2014, published 2018).

Test: Measurement of solubility of compound A in various solvents (oil components)
Format: physicochemical
Conditions: 25° C., stirred 24 hr
Description: An excess amount (about 0.2 g) of compound A was added to various solvents (10 g) described in Table 7, and the mixture was stirred at 25° C. for 24 hr. Thereafter, the solvent was filtered off through a 0.45 μm non-aqueous filter while maintaining the temperature. The content of compound A contained in the filtrate was measured in the same manner as in Experimental Example 1, and the solubility of compound A in various solvents was calculated.

solubility (solvent castor oil): 0.311%
solubility (solvent corn oil): 0.008%
solubility (solvent cottonseed oil): 0.008%
solubility (solvent olive oil): 0.009%
solubility (solvent rape seed oil): 0.007%
solubility (solvent soybean oil): 0.007%
SMILES: Cc1cc(C(=O)Nc2cc(Oc3ccc4nc(NC(=O)C5CC5)cn4n3)ccc2C)n(C)n1 [compound A, N-[5-({2-[(cyclopropylcarbonyl)amino]imidazo[1,2-b]pyridazin-6-yl}oxy)-2-methylphenyl]-1,3-dimethyl-1H-pyrazole-5-carboxamide]
